{
  "source": "patent US20110200655A1",
  "about": "“Systems and methods that kill infectious agents (bacteria) without the use of a systemic anti-biotic” (priority 2010, published 2011)",
  "key": {"E. coli bacteria": {"tested_on": "E. coli bacteria", "test": "Zone of inhibition of extract solutions on agar culture plate", "format": "cell-based, Escherichia coli", "details": "20 microliter drop", "experimental": "In this example, a microbicidal utility substrate is made of a nonwoven rayon gauze material graft polymerized with diallyldimethylammonium chloride (DADAMC), and containing approximately 10 weight % poly(DADMAC)), and SofWick, a commercially available rayon gauze material manufactured by Johnson & Johnson were used as substrates. The material was prepared via modification of the SofWick substrate. Each substrate measured approximately 40 square inches. Substrates were dried at 60° C. for 30 minutes and then weighed. Both samples were trimmed to weigh exactly 1.00 grams each. A 0.5 weight % solution of Cefazolin Sodium USP (Geneva Pharmaceuticals) was prepared. Each sample was placed in a 50 mL screw-cap polypropylene centrifuge tube, along with 30 mL of the Cefazolin solution and the tubes were placed on a rotating agitator for 3 hours. The samples were removed from the solutions, then squeezed to remove excess solution, dried at 60° C. for 2 hours, then weighed. The sample weighed 1.05 grams, whereas the SofWick sample weighed 1.00 grams. […] The extraction liquid was saved for analysis.\nThe dried samples were placed in separate 50 mL centrifuge tubes containing 25 mL of distilled water, then placed in the rotating agitator overnight at room temperature. The samples were then removed, squeezed to remove excess solution, dried at 60° C. for 2 hours, then weighed. The sample weighed 1.03 grams, and the SofWick sample weighed 0.98 grams. […] The extraction liquid was saved for analysis This extraction procedure was repeated […] additional times to yield two series of six extraction liquids.\nThe extract solutions were tested for antimicrobial activity by placing single 20 microliter drops of the solutions at marked locations on an agar culture plate spread with ~3×10^3 CFU (continuous lawn) of E. coli bacteria. Plates were incubated overnight at 37° C., and the diameter of the “zone of inhibition”, or “ZOI” was measured. The size of this zone corresponds to the antibacterial activity of the extract solutions. […]"}, "Staph. aureus": {"tested_on": "Staph. aureus", "test": "Zone of inhibition of extract solutions on agar culture plate", "format": "cell-based, Staphylococcus aureus", "experimental": "The extract solutions were tested for antimicrobial activity by placing single 20 microliter drops of the solutions at marked locations on an agar culture plate spread with ~3×10^3 CFU (continuous lawn) of E. coli bacteria. Plates were incubated overnight at 37° C., and the diameter of the “zone of inhibition”, or “ZOI” was measured. The size of this zone corresponds to the antibacterial activity of the extract solutions.\nThe samples were soaked in 25 mL of 5% PG solution for 2 hours, then squeezed to remove excess solution, dried and weighed. Samples were then washed with 25 mL of distilled water for one hour, then dried and weighed. These wash solutions (G-1 and H-1) were saved for analysis. The samples were then subjected to two additional washings with 25 mL distilled water, without drying in between washings (G-2, G-3, and H-2, H-3). Samples were then dried and weighed.\nA repeat of the method of Example 15 was used, except that the extraction solvent used was phosphate buffered saline (“PBS”, pH=7.4, Fisher Scientific), and samples were not dried and weighed between extractions. Samples of a microbicidal utility substrate (Sample I, initial weight=1.024 g) and SofWick (Sample J, initial weight=1.011 g) were each soaked in 20 Ml of ~4% penicillin G solution overnight, and excess solution was removed by squeezing. Samples were then washed with 25 mL distilled water for one hour with agitation, squeezed to remove excess liquid, and then subjected to five sequential extractions using 25 mL of PBS for one hour at room temperature. Samples were squeezed to remove excess solution between extractions. Extracts were tested for antibacterial activity against S. aureus according to the procedure outlined above.\nThe method of Example 15 was used, except that sodium pyrithione (“SP”, Acros Chemical) was used instead of penicillin. One gram samples of the microbicidal utility substrate (sample K), and untreated SofWick (sample L) were each soaked overnight in 25 ml of 0.5% SP solution. Samples were removed and squeezed to remove excess liquid. Samples were then washed in 25 mL of distilled water for one hour with agitation, then squeezed to remove excess liquid. Each sample was subjected to four sequential extractions using 25 mL of distilled water for one hour at room temperature with agitation. Samples were squeezed to remove excess solution between extraction cycles. The extracts were tested for antibacterial activity against S. aureus using the procedure described above."}, "MMPs": {"target": "MMPs", "details": "compared with Ilomastat; cited from earlier work"}, "microorganisms": {"tested_on": "microorganisms", "details": "tobramycin 2.5 mg/l, 15-400 µA/cm^2 during 8 h; cited from earlier work"}},
  "data": [
    {"molecule": "Cc1nnc(SCC2=C(C(=O)O)N3C(=O)[C@@H](NC(=O)Cn4cnnn4)[C@H]3SC2)s1", "note": "[Cefazolin, Cefazolin Sodium USP]", "values": [
      {"measurement": "ZOI diameter", "setting": "E. coli bacteria; Cefazolin 0.01% control solution", "result": 0, "unit": "mm"},
      {"measurement": "ZOI diameter", "setting": "E. coli bacteria; Cefazolin 0.1% control solution", "result": 18, "unit": "mm"},
      {"measurement": "ZOI diameter", "setting": "E. coli bacteria; Cefazolin 1% control solution", "result": 40, "unit": "mm"}
    ]},
    {"molecule": "CC1(C)S[C@@H]2[C@H](NC(=O)Cc3ccccc3)C(=O)N2[C@H]1C(=O)[O-].[K+]", "note": "[Penicillin G, Penicillin G Potassium]", "values": [
      {"measurement": "ZOI diameter", "setting": "Staph. aureus; Penicillin G 0.01% control solution", "result": 0, "unit": "mm"},
      {"measurement": "ZOI diameter", "setting": "Staph. aureus; Penicillin G 0.1% control solution", "result": 44, "unit": "mm"},
      {"measurement": "ZOI diameter", "setting": "Staph. aureus; Penicillin G 1.0% control solution", "result": 56, "unit": "mm"}
    ]},
    {"molecule": "CNC(=O)C(Cc1c[nH]c2ccccc12)NC(=O)C(CC(=O)O)CC(C)C", "note": "(centres unmarked) [GM1489]", "values": [
      {"measurement": "Ki values for MMPs", "setting": "MMPs", "result": "almost as good as Ilomastat"}
    ]},
    {"molecule": "CC(C)C[C@H](CC(=O)NO)C(=O)N[C@@H](Cc1c[nH]c2ccccc12)C(=O)O", "note": "[C-terminal carboxylic form of Ilomastat]", "values": [
      {"measurement": "Ki values for MMPs", "setting": "MMPs", "result": "lower"}
    ]},
    {"molecule": "NC[C@H]1O[C@H](O[C@H]2[C@H](O)[C@@H](O[C@H]3O[C@H](CO)[C@@H](O)[C@H](N)[C@H]3O)[C@H](N)C[C@@H]2N)[C@H](N)C[C@@H]1O", "note": "[tobramycin]", "values": [
      {"measurement": "killing of microorganisms with current and antibiotic", "setting": "microorganisms", "result": "total killing of microorganisms"}
    ]},
    {"molecule": "[Na+].[O-][n+]1ccccc1[S-]", "note": "[SP, sodium pyrithione]", "values": [
      {"measurement": "ZIO of SP control solution", "setting": "Staph. aureus; 0.01% SP", "result": 12, "unit": "mm"},
      {"measurement": "ZIO of SP control solution", "setting": "Staph. aureus; 0.1% SP", "result": 26, "unit": "am"}
    ]}
  ]
}
